Reference: PubChem BioAssay (NCI)
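GI50: concentration for 50% inhibition of growth. TGI marks complete inhibition of growth.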

What was measured:
Experiment in all cases: DTP human tumour cell line panel, 384-well format
[1] = system: MDA-MB-435 melanoma
[2] = system: SNB-75 CNS
[3] = system: 786-0 renal
[4] = system: MOLT-4 leukemia
[5] = system: SK-OV-3 ovarian
[6] = system: EKVX NSCLC
[7] = system: UO-31 renal
[8] = system: MCF7 breast
[9] = system: MDA-MB-468 breast
[10] = system: NCI-H522 lung
[11] = system: SK-MEL-28 melanoma
[12] = system: U251 glioblastoma
[13] = system: SNB-19 CNS
[14] = system: OVCAR-8 ovarian
[15] = system: OVCAR-3 ovarian
[16] = system: NCI-H226 lung
[17] = system: KM12 colon
[18] = system: DU-145 prostate
[19] = system: SF-539 CNS
[20] = system: MALME-3M melanoma
[21] = system: OVCAR-4 ovarian
[22] = system: SK-MEL-2 melanoma
[23] = system: HOP-62 NSCLC
[24] = system: TK-10 renal
[25] = system: M14 melanoma
[26] = system: OVCAR-5 ovarian
[27] = system: HS 578T breast
[28] = system: HCT-116 colon
[29] = system: BT-549 breast
[30] = system: SK-MEL-5 melanoma
[31] = system: MDA-MB-231 breast
[32] = system: IGROV1 ovarian
[33] = system: NCI-H322M lung
[34] = system: NCI-H23 lung
[35] = system: UACC-257 melanoma
[36] = system: UACC-62 melanoma
[37] = system: SF-268 CNS
[38] = system: NCI-H460 NSCLC
[39] = system: K-562 leukemia
[40] = system: SW-620 colon
[41] = system: ACHN renal
[42] = system: COLO 205 colon
[43] = system: A549 NSCLC
[44] = system: HOP-92 NSCLC
[45] = system: SF-295 CNS
[46] = system: PC-3 prostate
[47] = system: SN12C renal
[48] = system: HT29 colon
[49] = system: T-47D breast
[50] = system: A498 renal
[51] = system: HCT-15 colon
[52] = system: HL-60(TB) leukemia
[53] = system: SR leukemia
[54] = system: CAKI-1 renal

Compound C[C@]12CC[C@@H]3c4ccc(O)cc4C[C@@H](CCCCCCCCCS(=O)CCCC(F)(F)C(F)(F)F)[C@H]3[C@@H]1CC[C@@H]2O (some centres not stated) has a GI50 [1] greater than 100 µM, a TGI [1] greater than 100 µM and a GI50 [2] greater than 100 µM. For the same compound, the TGI [2] was greater than 100 µM, the GI50 [3] was greater than 100 µM and the TGI [3] was greater than 100 µM. The GI50 [4] was 8.42 µM, the TGI [4] was greater than 100 µM and the GI50 [5] was greater than 100 µM. It also gave a TGI [5] greater than 100 µM, a GI50 [6] greater than 100 µM and a TGI [6] greater than 100 µM. The GI50 [7] was greater than 100 µM, the TGI [7] was greater than 100 µM and the TGI [8] was greater than 100 µM. For the same compound, the GI50 [9] was 2.37 µM, the TGI [9] was greater than 100 µM and the GI50 [10] was greater than 100 µM. It also gave a TGI [10] greater than 100 µM, a GI50 [11] greater than 100 µM and a TGI [11] greater than 100 µM. It also gave a GI50 [12] greater than 100 µM, a TGI [12] greater than 100 µM and a GI50 [13] greater than 100 µM. For the same compound, the TGI [13] was greater than 100 µM, the GI50 [14] was greater than 100 µM and the TGI [14] was greater than 100 µM. For the same compound, the GI50 [15] was greater than 100 µM, the TGI [15] was greater than 100 µM and the GI50 [16] was greater than 100 µM. It also gave a TGI [16] greater than 100 µM, a GI50 [17] of 75.8 µM and a TGI [17] greater than 100 µM. It also gave a GI50 [18] greater than 100 µM, a TGI [18] greater than 100 µM and a GI50 [19] greater than 100 µM. The TGI [19] was greater than 100 µM, the GI50 [20] was greater than 100 µM and the TGI [20] was greater than 100 µM. It also gave a GI50 [21] greater than 100 µM, a TGI [21] greater than 100 µM and a GI50 [22] greater than 100 µM. For the same compound, the TGI [22] was greater than 100 µM, the GI50 [23] was greater than 100 µM and the TGI [23] was greater than 100 µM. For the same compound, the GI50 [24] was greater than 100 µM, the TGI [24] was greater than 100 µM and the GI50 [25] was greater than 100 µM. It also gave a TGI [25] greater than 100 µM, a GI50 [26] greater than 100 µM and a TGI [26] greater than 100 µM. The GI50 [27] was greater than 100 µM, the TGI [27] was greater than 100 µM and the GI50 [28] was greater than 100 µM. The TGI [28] was greater than 100 µM, the GI50 [29] was greater than 100 µM and the TGI [29] was greater than 100 µM. It also gave a GI50 [30] of 27.4 µM, a TGI [30] greater than 100 µM and a GI50 [31] greater than 100 µM. The TGI [31] was greater than 100 µM, the GI50 [32] was greater than 100 µM and the TGI [32] was greater than 100 µM. For the same compound, the GI50 [33] was 76.8 µM, the TGI [33] was greater than 100 µM and the GI50 [34] was greater than 100 µM. The TGI [34] was greater than 100 µM, the GI50 [35] was greater than 100 µM and the TGI [35] was greater than 100 µM. For the same compound, the GI50 [36] was greater than 100 µM, the TGI [36] was greater than 100 µM and the GI50 [37] was greater than 100 µM. For the same compound, the TGI [37] was greater than 100 µM, the GI50 [38] was greater than 100 µM and the TGI [38] was greater than 100 µM. It also gave a GI50 [39] of 7.51 µM, a TGI [39] greater than 100 µM and a GI50 [40] greater than 100 µM. It also gave a TGI [40] greater than 100 µM, a GI50 [41] greater than 100 µM and a TGI [41] greater than 100 µM. For the same compound, the GI50 [42] was 77.1 µM, the TGI [42] was greater than 100 µM and the GI50 [43] was greater than 100 µM. The TGI [43] was greater than 100 µM, the GI50 [44] was greater than 100 µM and the TGI [44] was greater than 100 µM. The GI50 [45] was 9.39 µM, the TGI [45] was greater than 100 µM and the GI50 [46] was greater than 100 µM. It also gave a TGI [46] greater than 100 µM, a GI50 [47] greater than 100 µM and a TGI [47] greater than 100 µM. The GI50 [48] was 49.9 µM, the TGI [48] was greater than 100 µM and the GI50 [49] was 1.93 µM. The TGI [49] was greater than 100 µM, the GI50 [50] was greater than 100 µM and the TGI [50] was greater than 100 µM. The GI50 [51] was 67.4 µM, the TGI [51] was greater than 100 µM and the GI50 [52] was greater than 100 µM. The TGI [52] was greater than 100 µM, the GI50 [53] was greater than 100 µM and the TGI [53] was greater than 100 µM. The GI50 [54] was greater than 100 µM and the TGI [54] was greater than 100 µM.
